Some test systems named below: TK-10 renal; UACC-257 melanoma; OVCAR-5 ovarian; CAKI-1 renal; OVCAR-3 ovarian; SK-MEL-28 melanoma; SN12C renal; EKVX NSCLC; SNB-75 CNS; HL-60(TB) leukemia.
Test in all cases: NCI anticancer screen, dose series, 48 h

Molecules are shown by their SMILES.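 Values below derive from 48-hour exposures of cells grown in 96-well plates, with endpoints linearly interpolated between the two concentrations bracketing the appropriate inhibition level. Here, GI50 denotes the concentration required for 50% inhibition of growth. TGI: concentration producing complete growth inhibition.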

As for `c1ccc(COc2ccc(Nc3ncnc4ccc(-c5ccco5)cc34)cc2)cc1`, the GI50 in the experiment on TK-10 renal is 3.26 µM; in the experiment with UACC-257 melanoma, 7.85 µM; in the experiment with OVCAR-5 ovarian, 4.57 µM; in the experiment on CAKI-1 renal it was 2.19 µM; in the experiment with OVCAR-3 ovarian, 5.4 µM; in the experiment with SK-MEL-28 melanoma, 9.51 µM. Besides, the GI50 is 8.49 µM in the experiment on SN12C renal, 1.81 µM with EKVX NSCLC, 6.82 µM with SNB-75 CNS and 7.03 µM in the experiment on HL-60(TB) leukemia. The TGI in the experiment with TK-10 renal is 16.3 µM; in the experiment with UACC-257 melanoma it was 24.4 µM; with OVCAR-5 ovarian, 14.8 µM; in the experiment on CAKI-1 renal it was above 25 µM; in the experiment with OVCAR-3 ovarian, 12.8 µM; with SK-MEL-28 melanoma, above 25 µM. For the same compound, the TGI in the experiment on SN12C renal is above 25 µM; in the experiment with EKVX NSCLC, above 25 µM; in the experiment on SNB-75 CNS, above 18.9 µM; in the experiment on HL-60(TB) leukemia, 19.2 µM.

For `Cn1cc(-c2ccc3c(c2)ncn3-c2ccc(CC(=O)Nc3cc(C(C)(C)C)on3)cc2)cn1`, the GI50 is 0.671 µM with TK-10 renal; 3.18 µM with UACC-257 melanoma; 1.35 µM in the experiment on OVCAR-5 ovarian; 0.782 µM in the experiment with CAKI-1 renal; 2.06 µM in the experiment on OVCAR-3 ovarian; 2.65 µM in the experiment on SK-MEL-28 melanoma. Also, the GI50 with SN12C renal was 0.379 µM; in the experiment on EKVX NSCLC, 1.75 µM; with SNB-75 CNS it was 0.474 µM; with HL-60(TB) leukemia, 3.33 µM. Moreover, the TGI in the experiment on TK-10 renal is 3.17 µM; with UACC-257 melanoma, 53.7 µM; in the experiment with OVCAR-5 ovarian, above 27.2 µM; in the experiment on CAKI-1 renal it was 2.43 µM; in the experiment with OVCAR-3 ovarian it was above 39.8 µM; in the experiment with SK-MEL-28 melanoma it was above 100 µM. In addition, the TGI with SN12C renal was determined as 8.09 µM; in the experiment with EKVX NSCLC, 31.1 µM; with SNB-75 CNS, 2.87 µM; in the experiment with HL-60(TB) leukemia it was 9.65 µM.

Turning to `Nc1cc2c3c(cccc3c1)C(=O)N(CCN1CCN(CCN3C(=O)c4cccc5cc(N)cc(c45)C3=O)CC1)C2=O`, the TGI in the experiment on TK-10 renal, with UACC-257 melanoma, in the experiment on OVCAR-5 ovarian, in the experiment with CAKI-1 renal, in the experiment with OVCAR-3 ovarian and in the experiment on SK-MEL-28 melanoma was above 100 µM throughout. Also, the TGI in the experiment with SN12C renal, in the experiment on EKVX NSCLC, with SNB-75 CNS and with HL-60(TB) leukemia was above 100 µM each time.

As to `CCN=C(N)CSS(=O)(=O)O`, the TGI in the experiment on TK-10 renal, with UACC-257 melanoma, with OVCAR-5 ovarian, in the experiment with CAKI-1 renal, in the experiment with OVCAR-3 ovarian and in the experiment with SK-MEL-28 melanoma was above 100 µM each time. Further, the TGI in the experiment with SN12C renal, with EKVX NSCLC, in the experiment with SNB-75 CNS and with HL-60(TB) leukemia was above 100 µM throughout.

Take `CCN1C(=O)N(CC)C2C1NN=c1s/c(=C\c3ccc([N+](=O)[O-])cc3)c(=O)n12` (stereo not given): the GI50 in the experiment with TK-10 renal is above 35.4 µM; with UACC-257 melanoma it was 1.17 µM; in the experiment on OVCAR-5 ovarian, 1.22 µM; in the experiment on CAKI-1 renal it was 0.395 µM; in the experiment on OVCAR-3 ovarian, 0.283 µM; in the experiment on SK-MEL-28 melanoma, 1.93 µM. For the same compound, the GI50 was 0.677 µM in the experiment with SN12C renal, 0.893 µM with EKVX NSCLC, 0.181 µM in the experiment on SNB-75 CNS and 0.31 µM in the experiment with HL-60(TB) leukemia. Further, the TGI in the experiment on TK-10 renal was above 100 µM; in the experiment on UACC-257 melanoma, 70 µM; in the experiment on OVCAR-5 ovarian it was above 91.1 µM; in the experiment with CAKI-1 renal it was above 46.4 µM; with OVCAR-3 ovarian, 0.842 µM; with SK-MEL-28 melanoma, above 100 µM. The TGI is above 64.4 µM with SN12C renal, above 100 µM in the experiment with EKVX NSCLC, 0.783 µM with SNB-75 CNS and 1.12 µM in the experiment with HL-60(TB) leukemia.

Regarding `COC(=O)C1(C)CCc2c(ccc3ccccc23)C1=O` (stereo not given), the TGI in the experiment on TK-10 renal was 95.7 µM; with UACC-257 melanoma it was 55.2 µM; with OVCAR-5 ovarian, above 100 µM; in the experiment with CAKI-1 renal, 41.6 µM; in the experiment on OVCAR-3 ovarian, above 100 µM; in the experiment with SK-MEL-28 melanoma, above 100 µM. The TGI with SN12C renal, in the experiment on EKVX NSCLC, in the experiment on SNB-75 CNS and in the experiment with HL-60(TB) leukemia was above 100 µM throughout.

Take `NCCCNCCCNc1nc2ccccc2c2[nH]c3ccccc3c12`: the GI50 in the experiment with TK-10 renal was 1.1 µM; with UACC-257 melanoma, 2.31 µM; in the experiment on OVCAR-5 ovarian it was 0.215 µM; in the experiment with CAKI-1 renal, 0.458 µM; in the experiment with OVCAR-3 ovarian, 0.449 µM; in the experiment with SK-MEL-28 melanoma, 0.464 µM. Besides, the GI50 with SN12C renal was 0.0224 µM; in the experiment on EKVX NSCLC, 2.09 µM; with SNB-75 CNS, 0.224 µM; in the experiment with HL-60(TB) leukemia, 0.0375 µM. The TGI with TK-10 renal amounted to 3.68 µM; in the experiment with UACC-257 melanoma it was 6.2 µM; with OVCAR-5 ovarian it was 1.61 µM; in the experiment on CAKI-1 renal, 2.31 µM; in the experiment with OVCAR-3 ovarian, 2.43 µM; in the experiment with SK-MEL-28 melanoma, 2.1 µM. Besides, the TGI was found to be 1.28 µM with SN12C renal, 5.8 µM in the experiment on EKVX NSCLC, 1.29 µM with SNB-75 CNS and 1.3 µM with HL-60(TB) leukemia.

As to `CCOC(=O)/C(=C/c1c(-c2ccccc2)[nH]c2ccccc12)C(=O)c1ccc(Cl)cc1`, the GI50 was 28.2 µM with TK-10 renal; 6.49 µM in the experiment on UACC-257 melanoma; above 100 µM in the experiment with OVCAR-5 ovarian; 4.12 µM with CAKI-1 renal; 3.35 µM in the experiment on OVCAR-3 ovarian; 5.26 µM with SK-MEL-28 melanoma. In addition, the GI50 with SN12C renal was 3.35 µM; with EKVX NSCLC it was 3.73 µM; in the experiment on SNB-75 CNS, 4.87 µM; in the experiment on HL-60(TB) leukemia it was 1.99 µM. Moreover, the TGI with TK-10 renal, with UACC-257 melanoma, with OVCAR-5 ovarian, in the experiment on CAKI-1 renal, in the experiment with OVCAR-3 ovarian and in the experiment with SK-MEL-28 melanoma was above 100 µM throughout. Also, the TGI in the experiment with SN12C renal was above 100 µM; with EKVX NSCLC, above 100 µM; with SNB-75 CNS, above 100 µM; in the experiment with HL-60(TB) leukemia it was 7.59 µM.

These data come from PubChem BioAssay (NCI).
